Like-named read-outs stand apart in the source and are kept apart here.
Columns and labels:
human TRPM8 [1] = molecular target: T1, human TRPM8 (Homo sapiens, UniProt Q7Z2W7); conditions: maximal currents at 5 µM compared to L-menthol 100 µM; cited from earlier work
T1 construct: expressed in transfected cells; host or cells: HEK-293/TRPM8 exon1 K3 cells

human TRPM8 [2] = molecular target: T1, human TRPM8; assay: Patch-clamp assay on TRPM8 channels (HEK-293/TRPM8 cells, menthol-evoked currents); assay type: cell-based; conditions: for inhibitory effect on menthol-evoked TRPM8 currents: dependence on concentration
Experimental: Patch clamp experiments for compounds 4, 5 and 9 were done as described. HEK-293/TRPM8 exon 1 cells were seeded 3 or 4 days before experiment at a concentration of 4 and 2.5 million cells, respectively, onto a T225 flask. Before each experiment, cells were washed two times with D-PBS without Ca^2+/Mg^2+ (Euroclone, Milan, Italy) and trypsinized with trypsin−EDTA (Sigma-Aldrich; diluted 1/10). Cells were suspended in 25 mL of EX-CELL ACF CHO medium (Sigma-Aldrich, Milan, Italy), 0.625 mL of HEPES (Lonza, Walkersville, USA), 0.25 mL of 100 × penicillin/streptomycin (Lonza, Walkersville, USA), 0.1 mL of soybean trypsin inhibitor 10 mg/mL (Sigma-Aldrich), and placed on the automated patch-clamp platform (QPatch 16X, Sophion Bioscience, Ballerup, Denmark). A stock solution of L-Menthol (1 M, 100% DMSO), used as reference agonist, was freshly prepared. A diluted stock of 300 mM was prepared from the 1 M stock in 100% DMSO, and a final dilution was obtained using the extracellular solution to give a working concentration of 300 μM (1:1000, 0.1% final DMSO concentration). Stock solutions of the testing compounds (10 mM; 100% DMSO; stored at − 20 °C) were freshly prepared, as well. Further dilution of these stock solutions to a final concentration of 300 μM was performed from the 10 mM stock in 100% DMSO, and the working dilutions were performed just before the experiments using the extracellular solution containing 300 μM menthol. The highest concentration tested was 300 nM, with serial dilutions (1:10). DMSO was balanced to keep it constant throughout all the solutions in the same experiment (0.2% final DMSO concentration). Standard whole-cell voltage clamp experiments were performed at room temperature using the multihole technology. For the voltage clamp experiments on human TRPM8, data were sampled at 2 kHz. After establishment of the seal and the passage in the whole cell configuration, the cells were subjected to a voltage ramp (20 ms step at − 60 mV; 100 ms ramp − 60/ + 100 mV; 20 ms step at + 100 mV; return to − 60 mV) every 4 s. The antagonistic effect on human TRPM8 current of target compounds was evaluated after application of the agonist (menthol, 300 μM), in the absence or presence of increasing concentrations of the compound under investigation. Outward current evoked by the voltage ramp, measured in the step at + 100 mV were measured. The intracellular solution contained (mM) 135 CsCl, 10 BAPTA, 10 HEPES, 4 Na2ATP (pH 7.2 with CsOH). The extracellular solution contained (mM) 145 NaCl, 4 KCl, 1 MgCl2, 2 CaCl2, 10 HEPES, 10 glucose (pH 7.4 with NaOH). TRPM8 modulation by final compounds 3 and 6 has been previously determined by patch clamp measurements[29],[30].

LNCaP cells [3] = assay: DNA synthesis (BrdU incorporation) in LNCaP cells; assay type: cell-based, human; conditions: 10 nM R1881, compound 1 μM
Experimental: […] Cells were fixed, permeabilized, washed and the BrdU incorporation was analysed as reported. Nuclei were stained with Hoechst and cells on coverslips were scored by IF microscopy, using a DMLB Leica (Leica) fluorescent microscope, equipped with HCX PL Apo 63 × oil objective. Different fields from each coverslip were analyzed and BrdU incorporation was calculated by the formula: percentage of BrdU-positive cells = (No. of BrdU-positive cells/No. of total cells) × 100. Data in the graphs derive from at least 1000 scored cells for each coverslip. Representative images were captured using DC480 camera (Leica) and acquired using Leica Suite software. They are representative of three different experiments.

C4-2B cells = assay: DNA synthesis (BrdU incorporation) in C4-2B cells; assay type: cell-based, human; conditions: cycling cells, 18 h, 10 μM
Experimental: Cells on coverslips were pulsed in vivo with BrdU (Sigma-Aldrich; at 100 μM, final concentration) and left unchallenged or challenged with 10 nM R1881 for 18 h, in the absence or presence of the indicated compounds. Cells were fixed, permeabilized, washed and the BrdU incorporation was analysed as reported. Nuclei were stained with Hoechst and cells on coverslips were scored by IF microscopy, using a DMLB Leica (Leica) fluorescent microscope, equipped with HCX PL Apo 63 × oil objective. Different fields from each coverslip were analyzed and BrdU incorporation was calculated by the formula: percentage of BrdU-positive cells = (No. of BrdU-positive cells/No. of total cells) × 100. Data in the graphs derive from at least 1000 scored cells for each coverslip. Representative images were captured using DC480 camera (Leica) and acquired using Leica Suite software. They are representative of three different experiments.

PSA = PSA secretion (ELISA) from LNCaP cells; assay type: cell-based, human; conditions: enzalutamide 10 μM
Experimental: It was done in culture medium using the PSA ELISA kit (Abnova-Taiwan Corporation, Taiwan), according to the manufacturer’s instructions. Released PSA was analyzed at 450 nm using the EnSpire Multimode Plate Reader (Perkin-Elmer, U.S.A.).

[4] = test system: FAK, paxillin, ERK, RSK and Src tyrosine kinase; assay: Western blot of androgen-induced rapid actions in LNCaP cells (Fig. 6c); assay type: cell-based, human; conditions: 10 nM R1881, 10 min, enzalutamide 10 μM
Text: (§1) All performed as reported. The mouse monoclonal anti-AR (441; Santa Cruz) antibody was used in Co-Ip or WB approaches. TRPM8 was detected using the rabbit polyclonal anti-TRPM8 (NBP1-97311; Novus Biological). […] The rabbit polyclonal anti-ERK (C-14; Santa Cruz), antibody was used to detect total ERK. FAK and P-Tyr397 FAK were detected using the mouse monoclonal anti-FAK (Clone 77/610077 BD Transduction Laboratories) or anti P-Tyr397 FAK (Clone 14/611722; BD Transduction Laboratories) antibodies, respectively. P-Tyr118 paxillin and total paxillin were detected using the rabbit polyclonal anti-P-Y118 (#2541, Cell Signaling) or the mouse monoclonal anti-paxillin (clone 349; BD Biosciences) antibodies, respectively. […] P-Tyr 416 Src and Src were detected using the rabbit monoclonal anti P-Tyr 416 Src (#6943; Cell Signaling) or the mouse monoclonal anti Src (Calbiochem) antibodies, respectively. ERα and ERβ were detected using the rabbit polyclonal anti-ERα (543; Santa Cruz) or anti-ERβ (Upstate Biotechnology, U.S.A.) antibodies. Cyclin D1, p27 and Cdk4 were stained using the mouse monoclonal anti-cyclin D1 (clone AM29; from Zymed Laboratories Inc.), the rabbit polyclonal anti-p27 (C-19; Santa Cruz) or anti Cdk-4 (c-22; Santa Cruz) antibodies, respectively. The mouse monoclonal anti-tubulin (Sigma-Aldrich) antibody was used to detect tubulin. The ECL system (GE Healthcare) was employed to reveal immune-reactive proteins. Densitometric analysis of WB was performed by using Image J Software (https://imagej.nih.gov/ij).

AR/TRPM8 complex = molecular target: T2, AR/TRPM8 complex (Homo sapiens, UniProt Q7Z2W7); assay: Co-IP of AR with TRPM8 in LNCaP cells; assay type: cell-based; conditions: for AR, Average (n=3) / TRPM8, Average (n=3): Fig 6e, R1881 + enz 10 μM
T2 construct: We here dissected an endogenous non-genomic mechanism of the TRPM8 channel regulation by androgens in PC cells; endogenous in cells; host or cells: LNCaP cells
T2 sequence (Q7Z2W7 whole entry, one chain of several): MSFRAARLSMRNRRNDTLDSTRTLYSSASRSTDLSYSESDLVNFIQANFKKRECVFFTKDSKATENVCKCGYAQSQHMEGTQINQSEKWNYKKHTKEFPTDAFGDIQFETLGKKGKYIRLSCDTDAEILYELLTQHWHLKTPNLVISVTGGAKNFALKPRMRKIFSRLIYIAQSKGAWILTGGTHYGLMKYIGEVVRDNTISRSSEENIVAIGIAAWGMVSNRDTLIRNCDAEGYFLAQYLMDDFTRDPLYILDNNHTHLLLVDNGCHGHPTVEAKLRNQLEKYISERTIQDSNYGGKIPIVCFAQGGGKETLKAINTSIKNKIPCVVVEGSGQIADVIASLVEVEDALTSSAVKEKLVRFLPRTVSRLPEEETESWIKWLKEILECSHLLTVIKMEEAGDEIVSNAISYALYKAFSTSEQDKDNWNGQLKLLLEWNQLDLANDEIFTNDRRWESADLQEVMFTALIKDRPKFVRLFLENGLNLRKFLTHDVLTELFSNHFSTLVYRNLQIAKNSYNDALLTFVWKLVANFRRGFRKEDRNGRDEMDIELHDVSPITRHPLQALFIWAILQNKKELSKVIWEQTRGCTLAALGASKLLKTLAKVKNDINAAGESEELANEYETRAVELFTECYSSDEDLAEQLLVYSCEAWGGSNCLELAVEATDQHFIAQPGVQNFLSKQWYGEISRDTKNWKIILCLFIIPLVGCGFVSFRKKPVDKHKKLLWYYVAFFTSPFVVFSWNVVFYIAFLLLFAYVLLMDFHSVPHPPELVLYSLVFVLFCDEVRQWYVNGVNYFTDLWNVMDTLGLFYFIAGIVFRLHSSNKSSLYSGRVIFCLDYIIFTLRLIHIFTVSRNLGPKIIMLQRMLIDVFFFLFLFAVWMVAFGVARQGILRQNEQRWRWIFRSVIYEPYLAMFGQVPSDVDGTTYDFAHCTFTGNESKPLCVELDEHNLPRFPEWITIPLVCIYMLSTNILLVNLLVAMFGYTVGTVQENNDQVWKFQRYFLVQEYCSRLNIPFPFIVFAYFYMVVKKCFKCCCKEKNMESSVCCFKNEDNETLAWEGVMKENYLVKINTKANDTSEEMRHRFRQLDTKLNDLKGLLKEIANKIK
Text: as §1

AR = assay: Western blot of AR in LNCaP lysate proteins; assay type: cell-based, human; conditions: Fig 6e, R1881 + enz 10 μM
Text: as §1

TRPM8 = assay: Western blot of TRPM8 in LNCaP lysate proteins; assay type: cell-based, human; conditions: Fig 6e, R1881 + enz 10 μM
Text: as §1

LNCaP cells [5] = test system: LNCaP cells; design: method as in PMID 33288740; conditions: cited from earlier work
[6] = fourth group of list (probably IP anti-AR)

T1 sequence (Q7Z2W7 whole entry): as the sequence (Q7Z2W7 whole entry, one chain of several) above

For `c1ccc(Oc2ccc(CNCCc3c[nH]c4ccccc34)cc2)cc1` [Compound 3], the “% Efficacy” value (human TRPM8 [1]) is listed as 100.0 ±8.4%.
With `O=[N+]([O-])c1ccc(Sc2[nH]c3ccccc3c2CCNCc2ccc(Oc3ccccc3)cc2)c([N+](=O)[O-])c1` [Compound 5] the IC50 (human TRPM8 [2]; 300 µM menthol-evoked currents, read-out: Potency IC50) was 0.34 ± 0.026 µM, the IC50 (human TRPM8 [2]; TRPM8 antagonist, menthol-evoked currents, one range for both compounds, read-out: IC50) was 0.204 to 0.34 µM and the “inhibitory effect on menthol-evoked TRPM8 currents” value (human TRPM8 [2]) was “concentration-dependent”.
For `Cn1cc(CNCCc2ccc(-c3ccccc3)cc2)c2cc(CNc3ccc(F)cc3)ccc21` [Compound 9], the IC50 (human TRPM8 [2]; TRPM8 antagonist, read-out: IC50) was 5 µM, the “inhibitory effect on menthol-evoked TRPM8 currents” value (human TRPM8 [2]) was “concentration-dependent” and the “inhibitory effect on R1881-stimulated DNA synthesis, compared with 3 and 5” value (LNCaP cells [3]) was “stronger”.
In the case of `CNC(=O)c1ccc(N2C(=S)N(c3ccc(C#N)c(C(F)(F)F)c3)C(=O)C2(C)C)cc1F` [Enzalutamide], the BrdU incorporation (C4-2B cells) is reported as “did not observe any effect”, the “androgen-induced PSA secretion” value (PSA; R1881, 48 h) is reported as “strongly inhibited” and the “PSA secretion when used alone” value (PSA; no R1881) is reported as “Neither the two TRPM8 antagonists, nor enzalutamide did modify such response”. The “androgen-elicited activation of FAK, paxillin, ERK, RSK and Src” value [4] was “impaired at similar extent”, the “androgen-induced AR/TRPM8 complex assembly” value (AR/TRPM8 complex; 10 nM R1881, 10 min, enzalutamide 10 μM) was “perturbed” and the “AR, Average (n=3)” value (AR/TRPM8 complex; [6]) was 1,1. For the same compound, the “TRPM8, Average (n=3)” value (AR/TRPM8 complex; [6]) was 0,3, the “AR, Average (n=3)” value (AR/TRPM8 complex; second group of list) was 0,1 and the “TRPM8, Average (n=3)” value (AR/TRPM8 complex; second group of list) was 0,1. For the same compound, the “AR, Average (n=3)” value (AR/TRPM8 complex; third group of list) was 1, the “TRPM8, Average (n=3)” value (AR/TRPM8 complex; third group of list) was 0 and the “AR, Average (n=3)” value (AR) was 1,1. The “TRPM8, Average (n=3)” value (TRPM8) was 1,1.
In the case of `COc1ccc(NC(=O)[C@@H]2C[C@H](C)CC[C@H]2C(C)C)cc1` [WS-12], the “viability of LNCaP cells” value (LNCaP cells [5]) is given as “slightly modify”.

From paper PMC8636514, “Therapeutic potential of TRPM8 antagonists in prostate cancer” (Scientific Reports, 2021)
